According to PMC5031696, “Synthesis, Biodistribution and In vitro Evaluation of Brain Permeable High Affinity Type 2 Cannabinoid Receptor Agonists [^11C]MA2 and [^18F]MA3” (Frontiers in Neuroscience, 2016):

How the values were obtained:
hCB2 [1] = target: T1, hCB2 (Homo sapiens, UniProt P34972); experiment: radioligand binding assay with [^3H]CP55940, hCB2
T1 construct: host or cells: CHO-K1 beta-arrestin cells
Description: (§1) CHO-K1 beta-arrestin cells (DiscoveRx, Fremont, CA) expressing hCB2, mouse CB2 (mCB2), and human CB1 (hCB1) were cultured in F-12 Nutrient Mixture (HAM) supplemented with 10% fetal bovine serum (FBS), 300 μg/mL hygromycin and 800 μg/mL geneticin (G418). Cells were incubated in a humidified atmosphere at 37°C with 5% CO2.
(§2) Stably transfected cells were treated for 24 h with 5 mM butyrate in growth medium before harvesting, followed by homogenization in 15 mmol/L Hepes, 0.3 mmol/L EDTA, 1 mmol/L EGTA, 2 mmol/L MgCl2, complete EDTA-free protease inhibitor (Roche Applied Science, Rotkreuz, Switzerland), pH 7.4 using a glass potter and centrifugation at 47,800 g at 4°C for 30 min. The pellet was then rehomogenized twice in the same buffer and centrifuged (47,800 g, 4°C, 30 min). The final pellet was then resuspended in 75 mmol/L Tris, 0.3 mmol/L EDTA, 1 mmol/L EGTA, 12.5 mmol/L MgCl2, 250 mmol/L sucrose, pH 7.4 at a protein concentration of 1 to 3 mg/mL, aliquoted, frozen on dry ice and stored at −80°C. Saturation binding was performed with 0.05 to 2.6 nM [^3H]CP55940 (Perkin Elmer) and 1.0 μg of membrane protein. CP55940 (10 μM) was used to define non-specific binding. More than 95% of the total binding signal was specific. Assay buffer consisted of 50 mmol/L Tris-HCl, 5 mmol/L MgCl2, 2.5 mmol/L EGTA, and 0.1% fatty acid-free BSA, pH 7.4. Assays were initiated by addition of membranes in a final volume of 250 μL/well. Mixtures were incubated for 3 h at room temperature and then vacuum filtered and rinsed with wash buffer (50 mmol/L Tris-HCl, 5 mmol/L MgCl2, 2.5 mmol/L EGTA, and 0.5% fatty acid-free BSA, pH 7.4) on a Filtermate cell harvester through Packard GF/B filters presoaked in 0.3% polyethylenimine.
(§3) For competition binding, membrane preparations were incubated with 0.3 nM [^3H]CP55940 in the presence or absence of increasing concentrations of ligands for 60 min at 30°C in a final volume of 0.2 mL of 50 mmol/L Tris-HCl, 5 mmol/L MgCl2, 2.5 mmol/L EGTA, 0.1% fatty acid-free BSA, and 1% DMSO, pH 7.4, buffer, gently shaking. Non-specific binding was defined with 10 μM CP55940. All binding reactions were terminated by vacuum filtration onto 0.5% polyethylenimine presoaked GF/B filter plates (Packard) followed by seven brief washes with 2 mL of ice-cold binding buffer containing 0.5% fatty acid-free BSA. Plates were dried at 50°C for 1 h and liquid scintillation counting was used to determine bound radiolabel. IC50 values and Hill slopes were determined by a four parameter logistic model using ActivityBase (ID Business Solution, Guilford, UK). pKi values were determined by the generalized Cheng-Prusoff equation (Yung-Chi and Prusoff, [1973]).

mCB2 [2] = target: T2, mCB2 (Mus musculus, UniProt P47936); experiment: functional cAMP assay, mCB2; format: cell-based; conditions: CHO-K1 cells expressing mCB2
T2 construct: host or cells: CHO-K1 beta-arrestin cells
Description: as §1
(§4) cAMP was measured using cAMP-Nano-TRF detection kit (Roche Diagnostics, Penzberg, Germany). Cells were seeded 17–24 h prior to the experiment 3 × 10^4 cells per well in a black 96-well plate with flat clear bottom (Corning, Wiesbaden, Germany) in growth medium and incubated in 5% CO2 at 37°C in a humidified incubator. The growth medium was exchanged with Krebs Ringer bicarbonate buffer with 1 mmol/L 3-isobutyl-1-methylxanthine (IBMX), 0.1% fatty acid-free bovine serum albumin (BSA) and incubated at 30°C for 60 min. Agonist was added to a final assay volume of 100 μL and the mixture was incubated for 30 min at 30°C. The assay was stopped by the addition of 50 μL 3x lysis reagent and shaken for 2 h at room temperature. The time-resolved energy transfer was measured using an LF502 Nanoscan FLT (IOM, Berlin, Germany), equipped with a laser as excitation source. cAMP content was determined from the function of a standard curve spanning from 10 to 0.13 nmol/L cAMP.

hCB1 [3] = target: T3, hCB1 (Homo sapiens, UniProt P21554); experiment: radioligand binding assay with [^3H]CP55940, hCB1
T3 construct: host or cells: CHO-K1 beta-arrestin cells
Description: as §1, §2, §3

hCB2 [4] = target: T1, hCB2; experiment: functional cAMP assay, hCB2; format: cell-based
Description: as §1, §4

mCB2 [5] = target: T2, mCB2; experiment: radioligand binding assay with [^3H]CP55940, mCB2; conditions: competition with [^3H]CP55940; read-out: mCB2 Ki
Description: as §1, §2, §3

hCB1 [6] = target: T3, hCB1; experiment: functional cAMP assay, hCB1 versus hCB2; format: cell-based; conditions: cAMP assays
Description: as §1, §4

T1 sequence (P34972 whole entry): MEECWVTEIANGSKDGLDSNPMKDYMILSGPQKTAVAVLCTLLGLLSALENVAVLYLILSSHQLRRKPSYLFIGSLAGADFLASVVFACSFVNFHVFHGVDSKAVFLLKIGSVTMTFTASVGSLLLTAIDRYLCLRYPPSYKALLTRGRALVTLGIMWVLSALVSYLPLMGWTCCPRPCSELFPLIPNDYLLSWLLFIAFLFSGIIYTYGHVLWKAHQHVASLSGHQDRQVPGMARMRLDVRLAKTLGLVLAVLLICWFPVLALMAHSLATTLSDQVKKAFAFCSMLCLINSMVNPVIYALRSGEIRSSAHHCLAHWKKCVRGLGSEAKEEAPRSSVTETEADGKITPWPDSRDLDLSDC
T2 sequence (P47936 whole entry): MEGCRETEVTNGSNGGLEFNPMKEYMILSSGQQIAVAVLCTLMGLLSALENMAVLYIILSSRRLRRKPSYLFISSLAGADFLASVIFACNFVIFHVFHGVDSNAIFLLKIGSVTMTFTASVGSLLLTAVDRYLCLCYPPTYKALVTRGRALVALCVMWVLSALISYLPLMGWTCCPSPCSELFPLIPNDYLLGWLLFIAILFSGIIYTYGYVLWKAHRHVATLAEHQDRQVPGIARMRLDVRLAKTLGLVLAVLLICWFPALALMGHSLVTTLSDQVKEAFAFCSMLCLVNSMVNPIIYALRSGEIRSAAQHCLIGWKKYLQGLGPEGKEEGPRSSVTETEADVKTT
T3 sequence (P21554 whole entry): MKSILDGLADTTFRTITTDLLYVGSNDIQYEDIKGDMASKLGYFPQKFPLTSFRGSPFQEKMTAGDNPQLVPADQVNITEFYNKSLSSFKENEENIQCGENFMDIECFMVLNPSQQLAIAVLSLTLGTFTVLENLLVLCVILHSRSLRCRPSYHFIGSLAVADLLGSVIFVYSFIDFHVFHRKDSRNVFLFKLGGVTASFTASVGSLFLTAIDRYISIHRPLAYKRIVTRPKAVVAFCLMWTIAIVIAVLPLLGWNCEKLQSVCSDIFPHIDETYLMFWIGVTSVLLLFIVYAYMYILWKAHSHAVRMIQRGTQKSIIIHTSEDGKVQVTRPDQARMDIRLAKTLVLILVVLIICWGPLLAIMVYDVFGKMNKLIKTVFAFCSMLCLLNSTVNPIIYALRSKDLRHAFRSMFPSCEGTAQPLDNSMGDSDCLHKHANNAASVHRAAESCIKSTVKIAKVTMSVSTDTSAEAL

CCCCOc1c(OC)ccc2cc(C(=O)NC3CCCCC3)c(=O)[nH]c12 [NE40, reference compound]
Ki (hCB2 [1]; competition with [^3H]CP55940, read-out: hCB2 Ki): 4 nM | species difference in binding affinity (hCB2 [1]; hCB2 versus mCB2): no species difference | mCB2 cAMP % eff (efficacy) (mCB2 [2]): −128% | EC50 (mCB2 [2]; read-out: mCB2 cAMP EC50): 11 nM | Ki (hCB1 [3]; competition with [^3H]CP55940, read-out: hCB1 Ki): 1040 nM | Ki ratio hCB1/hCB2 (hCB1 [3]; selectivity): 241 | hCB2 cAMP % eff (efficacy) (hCB2 [4]; CHO-K1 cells expressing hCB2): −178% | EC50 (hCB2 [4]; CHO-K1 cells expressing hCB2, read-out: hCB2 cAMP EC50): 8 nM | functional behaviour in cAMP assay (hCB2 [4]; hCB2): inverse agonist | Ki (mCB2 [5]): 2 nM | EC50 ratio hCB1/hCB2 (hCB1 [6]): > 1250
